Reference: US7584718B2, “Growing marine fish in fresh water” (MariCal, Inc., priority 2000, dated 2009)

These compounds were tested on full-length cation receptor (CaR) from the dogfish shark (assay: Dogfish shark CaR expressed in human HEK cells, response to ionic composition of extracellular fluid). Details: extracellular fluid bathing HEK cells; range from freshwater to seawater.
Format: cell-based
Source text: Polyvalent cation-sensing receptors (PVCRs) serve as salinity sensors in fish. These receptors are localized to the apical membranes of various cells within the fish's body (e.g., in the gills, intestine, kidney) that are known to be responsible for osmoregulation. A full-length cation receptor (CaR) from the dogfish shark has been expressed in human HEK cells. […] The ionic concentrations responded to encompassed the range which includes the transition from freshwater to seawater. Expression of PVCR mRNA is also modulated in fish after their transfer from freshwater to seawater, and is modulated by PVCR agonists.

SMILES | Receptor response to alterations in ionic composition
[Mg+2] [Mg^2+, magnesium] | respond to alterations
[Ca+2] [Ca^2+, calcium] | respond to alterations
[Cl-].[Na+] [NaCl, sodium chloride] | respond to alterations
